# Results as given in patent publication US6348476B1, “Pharmaceutical combination preparation of an inhibitor of the sodium/hydrogen exchanger and a medicament for the treatment of cardiovascular diseases” (Aventis Pharma Deutschland GmbH, priority 1997, dated 2002).
# System: experimental cardiac infarct in rats
# Experiment: experimental cardiac infarct in rats: coronary artery closed for one hour, reperfused for two hours, size of infarct determined
# Assay type: in vivo
# Conditions: % of the risk area, mean±S.E.M., control 63.4±4.3%
# Protocol: Male rats having a body weight of 280 to 410 g were classed into four groups and anaesthetized. The thorax was opened close to the sternum, a silk thread (Ethicon^R; 1.0 metric, 5-0) was placed around left coronary artery and the two loose ends of the thread were pulled through a small plastic tube.
# For administration of substance, a catheter was placed into the left jugular vein. The systemic blood pressure was recorded in the left carotid artery using a pressure recorder (Combitrans^R, B. Braun Melsungen AG) and the ECG was registered using subcutaneous electrodes. After digital conversion, the data were registered in a computer and the ECG was evaluated in accordance with the guidelines of the Lambeth Convention (6. Walker M J A, Curtis M J, Hearse D J, Campbell R W F, Janse M J, Yellon D M, Cobbe S M, Cokes S J, Harness J B, Harron D W G, Higgins S J, Julian D G, Lab M J, Manning A S, Northover B J, Parraft J R, Riemersma R A, Rieva E, Russell D G, Sheridan D J, Winslow E, Woodward B: The Lambeth convention: Guidelines for the study of arrhythmias in ischemia, infarction and reperfusion. Cardiovasx. Res 1988; 22: 447-455).
# Hoe 642 was dissolved in doubly distilled water and R56865 in tartaric acid (0.6%), dilution was carried out using doubly distilled water, and 4% of mannitol were added. […]
SMILES,"size of infarct (10 mg/kg of body weight of Hoe 642 intravenously 5 min before occlusion, n=7) [%]","size of infarct (3 mg/kg of body weight of R56865 intravenously 5 min before occlusion, n=8) [%]"
"CC(C)c1ccc(C(=O)N=C(N)N)cc1S(C)(=O)=O.CS(=O)(=O)O [Hoe 642, cariporide]",33.2±3.7,
"CN(c1nc2ccccc2s1)C1CCN(CCCCOc2ccc(F)cc2)CC1 [R56865, N-[1-[4-(4-fluorophenoxy)butyl]-4-piperdinyl]-N-methyl-2-benzothiazolamine]",,38.9±3.1
